Experimental data: patent US12679878B2, “CRF2 receptor agonists and their use in therapy” (SANOFI, priority 2020, dated 2026)
Starred links: 1 amine or outer side, 2 acyl side, 3 side chain; linkers in the order of their positions; H or OH if unused. Non-standard residues stand in square brackets, D forms with d. Residues, ends and D or L forms follow the SMILES beside them. Groups on a side chain read outwards from the residue. No end group written: not given here. *: point of attachment. C18 diacid = O=C(O)CCCCCCCCCCCCCCCCC(=O)*; γGlu = O=C(O)[C@H](CCC(=O)[*:2])N[*:1]; Palmitoyl = CCCCCCCCCCCCCCCC(=O)*; AEEA = NCCOCCOCC(=O)O; Aib = CC(C)(N)C(=O)O

B1: peptide of SEQ ID NO: 220 (peptide)
peptide: IVLSLD[dV]PIGLK([γGlu-Palmitoyl])QILLKQERQKK[Aib]RQQAETNKRILERV-NH2
modifications: N-terminus assumed
SMILES: CCCCCCCCCCCCCCCC(=O)N[C@@H](CCC(=O)NCCCC[C@H](NC(=O)[C@H](CC(C)C)NC(=O)CNC(=O)[C@@H](NC(=O)[C@@H]1CCCN1C(=O)[C@H](NC(=O)[C@H](CC(=O)O)NC(=O)[C@H](CC(C)C)NC(=O)[C@H](CO)NC(=O)[C@H](CC(C)C)NC(=O)[C@@H](NC(=O)[C@@H](N)[C@@H](C)CC)C(C)C)C(C)C)[C@@H](C)CC)C(=O)N[C@@H](CCC(N)=O)C(=O)N[C@H](C(=O)N[C@@H](CC(C)C)C(=O)N[C@@H](CC(C)C)C(=O)N[C@@H](CCCCN)C(=O)N[C@@H](CCC(N)=O)C(=O)N[C@@H](CCC(=O)O)C(=O)N[C@@H](CCCNC(=N)N)C(=O)N[C@@H](CCC(N)=O)C(=O)N[C@@H](CCCCN)C(=O)N[C@@H](CCCCN)C(=O)NC(C)(C)C(=O)N[C@@H](CCCNC(=N)N)C(=O)N[C@@H](CCC(N)=O)C(=O)N[C@@H](CCC(N)=O)C(=O)N[C@@H](C)C(=O)N[C@@H](CCC(=O)O)C(=O)N[C@H](C(=O)N[C@@H](CC(N)=O)C(=O)N[C@@H](CCCCN)C(=O)N[C@@H](CCCNC(=N)N)C(=O)N[C@H](C(=O)N[C@@H](CC(C)C)C(=O)N[C@@H](CCC(=O)O)C(=O)N[C@@H](CCCNC(=N)N)C(=O)N[C@H](C(N)=O)C(C)C)[C@@H](C)CC)[C@@H](C)O)[C@@H](C)CC)C(=O)O
B2: peptide of SEQ ID NO: 219 (peptide)
peptide: IVLSLD[dV]PIKLK([γGlu-Palmitoyl])QILLKQARQK[Aib]QRAQAEKNKRILERV-NH2
modifications: N-terminus assumed
SMILES: CCCCCCCCCCCCCCCC(=O)N[C@@H](CCC(=O)NCCCC[C@H](NC(=O)[C@H](CC(C)C)NC(=O)[C@H](CCCCN)NC(=O)[C@@H](NC(=O)[C@@H]1CCCN1C(=O)[C@H](NC(=O)[C@H](CC(=O)O)NC(=O)[C@H](CC(C)C)NC(=O)[C@H](CO)NC(=O)[C@H](CC(C)C)NC(=O)[C@@H](NC(=O)[C@@H](N)[C@@H](C)CC)C(C)C)C(C)C)[C@@H](C)CC)C(=O)N[C@@H](CCC(N)=O)C(=O)N[C@H](C(=O)N[C@@H](CC(C)C)C(=O)N[C@@H](CC(C)C)C(=O)N[C@@H](CCCCN)C(=O)N[C@@H](CCC(N)=O)C(=O)N[C@@H](C)C(=O)N[C@@H](CCCNC(=N)N)C(=O)N[C@@H](CCC(N)=O)C(=O)N[C@@H](CCCCN)C(=O)NC(C)(C)C(=O)N[C@@H](CCC(N)=O)C(=O)N[C@@H](CCCNC(=N)N)C(=O)N[C@@H](C)C(=O)N[C@@H](CCC(N)=O)C(=O)N[C@@H](C)C(=O)N[C@@H](CCC(=O)O)C(=O)N[C@@H](CCCCN)C(=O)N[C@@H](CC(N)=O)C(=O)N[C@@H](CCCCN)C(=O)N[C@@H](CCCNC(=N)N)C(=O)N[C@H](C(=O)N[C@@H](CC(C)C)C(=O)N[C@@H](CCC(=O)O)C(=O)N[C@@H](CCCNC(=N)N)C(=O)N[C@H](C(N)=O)C(C)C)[C@@H](C)CC)[C@@H](C)CC)C(=O)O

Columns and labels:
[1] = Pharmacokinetic properties in rats, i.v. or s.c. (Example 16); type: in vivo, SD rat; details: male, plasma, Rat; for AUC(0-t) / Cmax / half-life: Sprague-Dawley (SD)
Method: The pharmacokinetic properties of exemplary peptides SEQ ID NO: 35 and SEQ ID NO: 24 were assessed in mice and rats.
The test compound was administered in a suitable buffer system (PBS buffer solution at pH 7.4, or DPBS solution) at concentrations of 0.05, 0.1, 0.5 or 1 mg/ml depending on the dose, species and administration volume. Female C57BI/6 mice and male SD rate were dosed 0.1 mg/kg or 0.3 mg/kg intravenously or subcutaneously. The animals were sacrificed, and blood samples were collected after 0.08, 0.25, 0.5, 1, 2, 4, 8, 24, 32, and 48 hours post-intravenous administration and 0.25, 0.5, 1, 2, 4, 8, 24, 32, and 48 hours post-subcutaneous administration, respectively. Plasma samples were analysed after protein precipitation via liquid chromatography mass spectrometry (LC/MS). Pharmacokinetic parameters and half-life were calculated using Phoenix-WinNonlin 8.1 using a non-compartmental model and linear trapezoidal interpolation calculation.

human CRF2α receptor = target: T1, human CRF2α receptor (Homo sapiens, UniProt Q13324); assay: cAMP agonism at human CRF2 α receptor in TeloHEAC cells (Example 7); type: cell-based; details: cAMP HTRF, TeloHEAC cells stably expressing human CRF2 α, 0% HSA; read-out: EC50 [nM], 0% HSA
T1 construct: expressed in transfected cells; host or cells: TeloHEAC
T1 sequence (Q13324 1-411): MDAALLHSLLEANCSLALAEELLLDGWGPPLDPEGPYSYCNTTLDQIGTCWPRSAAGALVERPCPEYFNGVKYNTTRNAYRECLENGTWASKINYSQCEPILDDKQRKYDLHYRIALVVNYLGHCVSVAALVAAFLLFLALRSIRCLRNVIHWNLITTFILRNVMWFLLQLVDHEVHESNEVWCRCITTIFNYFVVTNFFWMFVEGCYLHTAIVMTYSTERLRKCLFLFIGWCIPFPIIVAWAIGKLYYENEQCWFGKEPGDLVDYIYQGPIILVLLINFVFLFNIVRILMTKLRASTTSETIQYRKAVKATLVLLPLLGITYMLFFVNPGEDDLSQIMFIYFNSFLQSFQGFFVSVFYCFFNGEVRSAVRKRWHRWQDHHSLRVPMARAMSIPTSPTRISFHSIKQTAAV
In short: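 Thawed frozen stably transfected cells in HBSS/20 mM HEPES (0% or 0.1% HSA) plus 2 mM IBMX were exposed to compound at 2000 cells/well for 30 min at room temperature. Intracellular cAMP was read by HTRF (665/620 nm ratio) after 1 h lysis; EC50 was derived with 1000 nM urocortin 2 set as 100%.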

rat CRF2R α receptor = assay: cAMP agonism at rat CRF2R α receptor in A7R5 rat aortic smooth muscle cells (Example 8); type: cell-based; details: cAMP HTRF, A7R5 rat aortic smooth muscle cell line, 0% HSA
In short: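 Potency (EC50) is the concentration reaching half-maximal activation, with responses scaled so that 1000 nM urocortin 2 equals 100%. Intracellular cAMP was quantified by homogeneous time-resolved fluorescence at 665/620 nm, 1 h after lysis-buffer reagents. Compound stimulation lasted 30 min at room temperature on 2000 IBMX-treated (2 mM) cells per well in HEPES-buffered HBSS.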

[2] = Solubility in buffer systems by UPLC-UV (Example 13); type: physicochemical; details: pH 7.4, Solubility in Buffer C [mg/ml]
In short: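 Quantitation used UV peak area from UPLC of the 1:10-diluted supernatant, set against a reference-compound standard curve with extinction coefficients adjusted for amino acid sequence.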

CRF1R receptor = target: T2, CRF1R receptor (Homo sapiens, UniProt P34998); assay: cAMP activity at anti-target CRF1R, CRF1R-overexpression CHO cell line (Example 9); type: cell-based; details: CRF1R-overexpression CHO cell line
T2 construct: host or cells: CHO-K1 clone 2
T2 sequence (P34998 24-415): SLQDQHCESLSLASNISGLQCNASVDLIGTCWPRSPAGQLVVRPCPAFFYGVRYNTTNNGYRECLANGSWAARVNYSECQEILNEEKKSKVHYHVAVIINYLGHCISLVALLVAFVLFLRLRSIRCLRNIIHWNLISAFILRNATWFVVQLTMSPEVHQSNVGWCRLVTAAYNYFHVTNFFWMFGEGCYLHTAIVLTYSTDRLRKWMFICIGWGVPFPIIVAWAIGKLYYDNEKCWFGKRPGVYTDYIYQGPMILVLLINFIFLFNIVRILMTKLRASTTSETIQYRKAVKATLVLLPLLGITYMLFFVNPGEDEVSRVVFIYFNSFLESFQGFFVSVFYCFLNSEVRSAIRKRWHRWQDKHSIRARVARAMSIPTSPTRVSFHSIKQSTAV
In short: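 Using thawed CRF1R-overexpressing CHO cells at 2000 per well, compound is applied for 30 min at RT in HBSS/HEPES buffer with IBMX. Cellular cAMP content is determined via HTRF, and percent activity is calculated against 1000 nM UCN2 defined as 100%.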

[3] = target: human corticotropin-releasing factor 2α (CRF2α receptor) (human), Q13324; assay: cell-based or functional assay
[4] = target: human corticotropin-releasing factor 2α receptor (CRF2α receptor) (human), Q13324; assay: cell-based or functional assay
[5] = target: T3, CRF1R receptor (anti-target) (UniProt P34998 24-415, limits assumed); assay: cell-based or functional assay
T3 sequence (looked up): T2 sequence (P34998 24-415)

Row | Molecule | clearance ([1]; SD, iv, 0.1 mg/kg i.v., read-out: CI (converted)) | bioavailability ([1]; SD, sc, 0.3 mg/kg s.c.) | AUC(0-t) ([1]; iv, 0.1 mg/kg i.v.) | Cmax ([1]; iv, 0.1 mg/kg i.v.) | half-life ([1]; iv, 0.1 mg/kg i.v.) | AUC(0-t) ([1]; sc, 0.3 mg/kg s.c.) | Cmax ([1]; sc, 0.3 mg/kg s.c.) | half-life ([1]; sc, 0.3 mg/kg s.c.) | EC50 (human CRF2α receptor) | EC50 (rat CRF2R α receptor) | solubility at 1 h [2] | EC50 (CRF1R receptor; 0% HSA) | Emax (CRF1R receptor; read-out: Emax (%)) | EC50 [nM], 0% HSA (cAMP, HTRF) [3] | CRF2 EC50 (cAMP, HTRF) [4] | CRF1/CRF2 ratio (of EC50) [5] | CRF1 EC50 (cAMP, HTRF) [5]
1 | CC[C@H](C)[C@H](N)C(=O)N[C@H](C(=O)N[C@@H](CC(C)C)C(=O)N[C@@H](CO)C(=O)N[C@@H](CC(C)C)C(=O)N[C@@H](CC(=O)O)C(=O)N[C@@H](C(=O)N1CCC[C@H]1C(=O)N[C@H](C(=O)N[C@@H](CCCCN)C(=O)N[C@@H](CC(C)C)C(=O)N[C@@H](CCCCNC(=O)COCCOCCNC(=O)COCCOCCNC(=O)CC[C@H](NC(=O)CCCCCCCCCCCCCCCCC(=O)O)C(=O)O)C(=O)N[C@@H](CCC(N)=O)C(=O)N[C@@H](CCCCN)C(=O)N[C@@H](CC(C)C)C(=O)N[C@@H](CC(C)C)C(=O)N[C@@H](CCCCN)C(=O)N[C@@H](CCC(N)=O)C(=O)N[C@@H](CCC(=O)O)C(=O)N[C@@H](CCCNC(=N)N)C(=O)N[C@@H](CCC(N)=O)C(=O)N[C@@H](CCCNC(=N)N)C(=O)N[C@@H](CCCCN)C(=O)N[C@@H](CCC(=O)O)C(=O)N[C@@H](CCCNC(=N)N)C(=O)N[C@@H](CCC(=O)O)C(=O)N[C@@H](CCC(N)=O)C(=O)N[C@@H](C)C(=O)N[C@@H](CCC(=O)O)C(=O)N[C@@H](CCCCN)C(=O)N[C@@H](CC(N)=O)C(=O)N[C@@H](CCCCN)C(=O)N[C@@H](CCCNC(=N)N)C(=O)N[C@H](C(=O)N[C@@H](CC(C)C)C(=O)N[C@@H](CCC(=O)O)C(=O)N[C@@H](CCCNC(=N)N)C(=O)N[C@H](C(N)=O)C(C)C)[C@@H](C)CC)[C@@H](C)O)C(C)C)C(C)C [compound 24] (H-IVLSLD[dV]PTKLK([AEEA-AEEA-γGlu-C18 diacid])QKLLKQERQRKEREQAEKNKRILERV-NH2; N-terminus assumed) | 0.43 mL/min/kg | 24% | 3790 ng·h/mL | 1480 ng/mL | 4.81 h | 2610 ng·h/mL | 171 ng/mL | 5.51 h | 6.95 nM | 4.94 nM | > 10.1 mg/mL | > 1000 nM | 1.48% | – | – | – | –
2 | B1 | – | – | – | – | – | – | – | – | – | – | – | – | – | 1.48 nM | 1.48 nM | 6 | 8.91 nM
3 | B2 | – | – | – | – | – | – | – | – | – | – | – | – | – | 5.98 nM | 5.98 nM | 2 | 13.5 nM
